Structures are written as SMILES.

The target of the test is T1, recombinant rat AR LBD (Rattus norvegicus, UniProt P15207).
T1 construct: recombinant rat AR LBD
T1 sequence (P15207 651-882 limits assumed): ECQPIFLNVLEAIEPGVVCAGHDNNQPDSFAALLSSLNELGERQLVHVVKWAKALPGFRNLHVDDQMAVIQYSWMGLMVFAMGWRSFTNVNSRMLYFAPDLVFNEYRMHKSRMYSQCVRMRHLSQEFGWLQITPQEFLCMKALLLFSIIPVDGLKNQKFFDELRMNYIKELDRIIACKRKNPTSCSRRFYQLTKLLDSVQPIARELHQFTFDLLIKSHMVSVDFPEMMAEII
In words: competition fluorescence polarization binding assay. The conditions noted are these: relative binding affinity; ratio of Kd of test compound to Kd of DHT multiplied by 100. As for the experimental part: Binding affinity of the synthesized ligands was evaluated by competition fluorescence polarization assay using recombinant rat AR LBD, and the results summarized in Table 1. All ligands with a bulky right-hand extension, such as compounds 18-20 in FIG. 5, performed poorly in this assay, with even the best compounds binding AR only weakly. […] In Table 1, RBA stands for relative binding affinity, and is defined as the ratio of Kd of the test compound to Kd of DHT multiplied by 100.
On the technique in general: Polarisation of emitted light reports the rotation of a fluorescent probe.
`CC12Cc3cnn(-c4ccc(F)cc4)c3C=C1CCCC2CCc1ccc(CO)cc1` (centres unmarked) [Compound 20]: the “RBA (DHT = 100)” value came out at 0.12. For the molecule `CC12Cc3cn[nH]c3C=C1CCCC2CCCO` (stereo not drawn) [Compound 12, 3-(4α-Methyl-4,4α,5,6,7,8-hexahydro-1H-benzo[f]indazol-5-yl)propan-1-ol], the “RBA (DHT = 100)” value is listed as 1. As for `CC12Cc3cnoc3C=C1CCCC2CCc1ccc(CO)cc1` (centres unmarked) [Compound 19, {4-[2-(4a-Methyl-4,4a,5,6,7,8-hexahydro-naphtho[2,3-d]isoxazol-5-yl)-ethyl]-phenyl}-methanol], the figure is below 0.1; as for `CC12Cc3cnn(-c4ccc(F)cc4)c3C=C1CCCC2CCCO` (stereo not drawn) [Compound 16, 3-(1-[4-Fluorophenyl]-4α-Methyl-4,4α,5,6,7,8-hexahydro-1H-benzo[f]indazol-5-yl)propan-1-ol], 19; as for `CC12Cc3cn[nH]c3C=C1CCCC2CCc1ccc(CO)cc1` (centres unmarked) [Compound 18, {4-[2-(4a-Methyl-4,4a,5,6,7,8-hexahydro-1H-benzo[f]indazol-5-yl)-ethyl]-phenyl}-methanol], below 0.1.
